The values below come from US20240043427A1 (Gilead Sciences, Inc., priority 2020, published 2024).

Assay [1] addresses T1, CD73 (Homo sapiens (Human), UniProt P21589). In words: MDA-MB-231 Cell Based CD73 Activity Assay (DMEM). The note with it: MDA-MB-231-GFP cells, DMEM medium with 10% human plasma, 200 uM AMP.
In assay [2] the target is T1, CD73. In kind it is biochemical. The note with it: 1 mM NaH2PO4 in enzyme buffer, CD73 0.3 nM, AMP 15 uM.

Structures are written as SMILES. Where only a bound is given, the exact number is not on record here.

T1 sequence (P21589 27-574): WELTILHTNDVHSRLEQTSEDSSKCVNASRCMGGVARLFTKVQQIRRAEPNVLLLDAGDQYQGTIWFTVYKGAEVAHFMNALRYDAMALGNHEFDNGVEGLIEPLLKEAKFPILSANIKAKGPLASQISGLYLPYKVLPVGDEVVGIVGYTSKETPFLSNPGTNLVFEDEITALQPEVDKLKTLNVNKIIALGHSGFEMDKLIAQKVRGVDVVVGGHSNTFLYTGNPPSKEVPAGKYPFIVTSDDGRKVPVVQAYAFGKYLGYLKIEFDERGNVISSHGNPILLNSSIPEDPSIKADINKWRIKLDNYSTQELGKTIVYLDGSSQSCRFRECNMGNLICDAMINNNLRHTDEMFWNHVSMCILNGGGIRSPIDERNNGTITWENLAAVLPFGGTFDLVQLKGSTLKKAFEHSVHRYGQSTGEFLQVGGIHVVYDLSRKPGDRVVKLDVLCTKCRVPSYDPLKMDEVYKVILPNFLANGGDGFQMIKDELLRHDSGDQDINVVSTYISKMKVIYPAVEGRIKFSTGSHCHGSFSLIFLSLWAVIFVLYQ

`O=c1[nH]cc(-c2cc([C@H]3C[C@@H]3c3ncc4cnn(CC(F)(F)F)c4c3F)c3ncc(F)n3n2)c(=O)[nH]1` (racemic) [Example 621, 5-(3-fluoro-8-((1S,2S)-2-(7-fluoro-1-(2,2,2-trifluoroethyl)-1H-pyrazolo[4,3-c]pyridin-6-yl)cyclopropyl)imidazo[1,2-b]pyridazin-6-yl)pyrimidine-2,4(1H,3H)-dione] returned an EC50 at CD73 [1] of 0.32 nM. Moreover, the midpoint of inhibition at CD73 [2], the IC50, lay at 1.32 nM.
`O=c1[nH]cc(-c2cc([C@H]3C[C@@H]3c3cc(-c4ccccc4C(F)(F)F)ccn3)c3nccn3n2)c(=O)[nH]1` (racemic) [Example 622, 5-(8-((1S,2S)-2-(4-(2-(trifluoromethyl)phenyl)pyridin-2-yl)cyclopropyl)imidazo[1,2-b]pyridazin-6-yl)pyrimidine-2,4(1H,3H)-dione] had an EC50 on CD73 [1] of 27.3 nM. In addition, the IC50 on CD73 [2] was found to be 2.87 nM.
On to `O=c1[nH]cc(-c2cc([C@H]3C[C@@H]3c3cc(-c4ccc(F)cc4F)ccn3)c3nccn3n2)c(=O)[nH]1` (racemic) [Example 623, 5-(8-((1S,2S)-2-(4-(2,4-difluorophenyl)pyridin-2-yl)cyclopropyl)imidazo[1,2-b]pyridazin-6-yl)pyrimidine-2,4(1H,3H)-dione], for which the EC50 at CD73 [1] is 22 nM. In addition, the IC50 against CD73 [2] came to 2.27 nM.
`O=c1[nH]cc(-c2cc([C@H]3C[C@@H]3c3cc4c(cn3)nc(C(F)(F)F)n4CC(F)(F)F)c3nccn3n2)c(=O)[nH]1` (racemic) [Example 624, 5-(8-((1S,2S)-2-(1-(2,2,2-trifluoroethyl)-2-(trifluoromethyl)-1H-imidazo[4,5-c]pyridin-6-yl)cyclopropyl)imidazo[1,2-b]pyridazin-6-yl)pyrimidine-2,4(1H,3H)-dione] came in with an EC50 at CD73 [1] of 0.32 nM. The same molecule yielded an IC50 against CD73 [2] of 5.81 nM.
In the same order, the values of `O=c1[nH]cc(-c2cc([C@H]3C[C@@H]3c3ccn4c(C(F)(F)F)ncc4c3)c3nccn3n2)c(=O)[nH]1` (racemic) [Example 625, 5-(8-((1S,2S)-2-(3-(trifluoromethyl)imidazo[1,5-a]pyridin-7-yl)cyclopropyl)imidazo[1,2-b]pyridazin-6-yl)pyrimidine-2,4(1H,3H)-dione] are 10.1 nM and 2.47 nM.
In turn, `O=c1[nH]cc(-c2cc([C@H]3C[C@@H]3c3ccc4nc(C(F)F)n(CC(F)(F)F)c4c3)c3nccn3n2)c(=O)[nH]1` (racemic) [Example 626, 5-(8-((1S,2S)-2-(2-(difluoromethyl)-1-(2,2,2-trifluoroethyl)-1H-benzo[d]imidazol-6-yl)cyclopropyl)imidazo[1,2-b]pyridazin-6-yl)pyrimidine-2,4(1H,3H)-dione] returned an EC50 at CD73 [1] of 0.26 nM. At CD73 [2], the IC50 is 5.16 nM.
On the same counts, the results for `O=c1[nH]cc(-c2cc([C@H]3C[C@@H]3c3cc(OCC(F)(F)F)c4cccnc4c3)c3nccn3n2)c(=O)[nH]1` (racemic) [Example 627, 5-(8-((1S,2S)-2-(5-(2,2,2-trifluoroethoxy)quinolin-7-yl)cyclopropyl)imidazo[1,2-b]pyridazin-6-yl)pyrimidine-2,4(1H,3H)-dione] are above 50 nM and 2.57 nM.
`CC(F)(F)CN1C(=O)C2(CC2)c2ccc([C@H]3C[C@@H]3c3cc(-c4c[nH]c(=O)[nH]c4=O)nn4ccnc34)cc21` (racemic) [Example 733, 5-(8-((1S,2S)-2-(1′-(2,2-difluoropropyl)-2′-oxospiro[cyclopropane-1,3′-indolin]-6′-yl)cyclopropyl)imidazo[1,2-b]pyridazin-6-yl)pyrimidine-2,4(1H,3H)-dione]: it took 0.11 nM to reach a half-maximal effect at CD73 [1] (EC50). This molecule displayed an IC50 against CD73 [2] of 2.72 nM.
In turn, `O=C1N(CC2(F)CC2)c2cc([C@H]3C[C@@H]3c3cc(-c4c[nH]c(=O)[nH]c4=O)nn4ccnc34)ccc2C12CC2` (racemic) [Example 734, 5-(8-((1S,2S)-2-(1′-((1-fluorocyclopropyl)methyl)-2′-oxospiro[cyclopropane-1,3′-indolin]-6′-yl)cyclopropyl)imidazo[1,2-b]pyridazin-6-yl)pyrimidine-2,4(1H,3H)-dione] registered an EC50 on CD73 [1] of 0.19 nM. In addition, the IC50 at CD73 [2] came out at 1.69 nM.
As for `O=C1N(CC(F)(F)C(F)F)c2cc([C@H]3C[C@@H]3c3cc(-c4c[nH]c(=O)[nH]c4=O)nn4ccnc34)ccc2C12CC2` (racemic) [Example 736, 5-(8-((1S,2S)-2-(2′-oxo-1′-(2,2,3,3-tetrafluoropropyl)spiro[cyclopropane-1,3′-indolin]-6′-yl)cyclopropyl)imidazo[1,2-b]pyridazin-6-yl)pyrimidine-2,4(1H,3H)-dione], the EC50 at CD73 [1] stood at 0.21 nM. At CD73 [2], this molecule registered an IC50 of 1.91 nM.
For the molecule `O=C1N(CC(F)(F)C(F)(F)F)c2cc([C@H]3C[C@@H]3c3cc(-c4c[nH]c(=O)[nH]c4=O)nn4ccnc34)ccc2C12CC2` (racemic) [Example 737, 5-(8-((1S,2S)-2-(2′-oxo-1′-(2,2,3,3,3-pentafluoropropyl)spiro[cyclopropane-1,3′-indolin]-6′-yl)cyclopropyl)imidazo[1,2-b]pyridazin-6-yl)pyrimidine-2,4(1H,3H)-dione], the EC50 on CD73 [1] was 0.18 nM. At CD73 [2], this molecule yielded an IC50 of 1.79 nM.
At CD73 [1], `O=C1N(CC(F)(F)C2CC2)c2cc([C@H]3C[C@@H]3c3cc(-c4c[nH]c(=O)[nH]c4=O)nn4ccnc34)ccc2C12CC2` (racemic) [Example 738, 5-(8-((1S,2S)-2-(1′-(2-cyclopropyl-2,2-difluoroethyl)-2′-oxospiro[cyclopropane-1,3′-indolin]-6′-yl)cyclopropyl)imidazo[1,2-b]pyridazin-6-yl)pyrimidine-2,4(1H,3H)-dione] yielded an EC50 of 0.21 nM. On CD73 [2], the IC50 worked out at 1.74 nM.
In the case of `O=C1N(CCC(F)(F)F)c2cc([C@H]3C[C@@H]3c3cc(-c4c[nH]c(=O)[nH]c4=O)nn4ccnc34)ccc2C12CC2` (racemic) [Example 746, 5-(8-((1S,2S)-2-(2′-oxo-1′-(3,3,3-trifluoropropyl)spiro[cyclopropane-1,3′-indolin]-6′-yl)cyclopropyl)imidazo[1,2-b]pyridazin-6-yl)pyrimidine-2,4(1H,3H)-dione], at CD73 [1], a half-maximal effect (EC50) was put at 0.84 nM. Inhibition at CD73 [2] was half-maximal at 2.37 nM (IC50).
`CC1(C)CN(c2cc(-c3c[nH]c(=O)[nH]c3=O)nn3ccnc23)CC1(F)F` [Example 80, 5-[8-(3,3-difluoro-4,4-dimethyl-pyrrolidin-1-yl)imidazo[1,2-b]pyridazin-6-yl]-1H-pyrimidine-2,4-dione] showed an EC50 on CD73 [1] of 6.79 nM. At CD73 [2], this molecule came in with an IC50 of 1.81 nM.
On the same counts, the results for `CC1(C)CN(c2cc(-c3c[nH]c(=O)[nH]c3=O)nn3c(F)cnc23)CC1(F)F` [Example 81, 5-[8-(3,3-difluoro-4,4-dimethyl-pyrrolidin-1-yl)-3-fluoro-imidazo[1,2-b]pyridazin-6-yl]-1H-pyrimidine-2,4-dione] are 8.22 nM and 1.93 nM.
Turning to `O=c1[nH]cc(-c2cc(N3CC(F)(F)C4(CC4)C3)c3ncc(F)n3n2)c(=O)[nH]1` [Example 82, 5-(8-(7,7-difluoro-5-azaspiro[2.4]heptan-5-yl)-3-fluoroimidazo[1,2-b]pyridazin-6-yl)pyrimidine-2,4(1H,3H)-dione], it took 16.4 nM to reach a half-maximal effect at CD73 [1] (EC50). In addition, the midpoint of inhibition at CD73 [2], the IC50, lay at 3.49 nM.

What is called EC50 is the concentration at which the effect is half-maximal. A high value points to a need for much substance. Broadly, the IC50 is the concentration that gives 50% inhibition.
